This is an account of results in article PMC6530213, “Monitoring flux in signalling pathways through measurements of 4EBP1-mediated eIF4F complex assembly” (BMC Biology, 2019).

The subject of data set [1] is eIF4E:eIF4G^604–646 complex. In words: NanoBit eIF4E:eIF4G^604–646 protein complementation assay in HEK293 cells. It is filed as cell-based. To be noted: for Extent of disruption of NanoBit signal / eIF4F complex: HEK293, relative to eIF4G YLL-LgBit binding control or maximal dose of Torin. Here is the method: (§1) Opaque 96-well plates were seeded with 20,000 HEK293 cells per well in DMEM and 10% FCS. Transfections in 96-well plate format were performed using FUGENE6 (Roche) with 100 ng of the indicated plasmid vectors per well as outlined in the manufacturer’s instructions (Fig. 1). Twenty-four hours after transfection, the medium was replaced with 100 μl of Opti-MEM I cell media containing 0% FCS with no added red phenol (Thermo Fisher Scientific) and luminescence activity assayed (as outlined in “NanoBit and cell viability experiments” section). Transfections utilising 4EBP1 constructs were performed with either 50 ng of the indicated construct or empty vector.
(§2) Twenty-four hours prior to transfection, cells (HEK293, PANC-1 or PC-3) were seeded at a cell density of 800,000 cells per well of a six-well plate (Thermo Fisher Scientific). Transfections in six-well plates were performed using Lipofectamine 3000 (Thermo Fisher Scientific) with 3 μg of the indicated plasmid vectors per well according to the manufacturer’s instructions. For knockdown experiment, siRNA Ctrl or 4EBP1 at a final concentration of 100 nM were included in the transfection mixture. Transfections utilising GFP and GFP-MYC contained 1 μg of each vector or empty vector, respectively. In the case of transfections utilising any of the 4EBP1 constructs described, only 0.5 μg of each vector or empty vector was used, respectively. After a 24- or 48-h (as indicated in the figure legends) incubation period, the medium was removed and cells were washed with PBS saline. Cells were then either lysed directly for immunoprecipitation experiments or were trypsinised and re-suspended in Opti-MEM media with 0% FCS to perform NanoBit and cell viability experiments in a 96-well format.
(§3) Either HEK293, PC-3 or PANC-1 cells were spun down at 1000 rpm for 5 min at room temperature. Supernatant was then discarded, and cells re-suspended to a density of to 220,000 cells per millilitre in Opti-MEM I cell media containing 0% FBS with no added red phenol. Then 90 μl of the cell re-suspension was added to the wells of a white opaque 96-well plate. Compounds were then titrated onto the 96-well plate using a suitable twofold dilution series from a 10× stock solution containing 10% v/v DMSO. Control wells were also treated with a 10% DMSO only stock solution to yield a final residual DMSO concentration of 1% v/v. The 96-well plates were then incubated for 4 h at 37 °C, with 5% CO2. Wells were then treated with a solution of Nano-Glo live substrate, which was prepared as per the manufacturer’s instructions. The plates were then shaken for 1 min at 22 °C and luminescence assessed after additional 50 min using an Envision Multi-Plate reader (Perkin-Elmer). Plates were then multiplexed with CellTiter-GLO 2.0 reagent (PROMEGA) and cellular viability determined according to the manufacturer’s instruction. NanoBit titration data was used to determine IC50 values for drug potency by fitting 4 parameter logistic curves using GraphPad Prism 7.0.

The test system of data set [2] is eIF4E:eIF4G^604–646 complex. Briefly: NanoBit eIF4E:eIF4G^604–646 protein complementation assay in PANC-1 cells. The class given is cell-based. Here is the method: as §2
as §3, with “Wells were then treated with a solution of Nano-Glo live substrate, which was prepared as per the manufacturer’s instructions.” left out, “NanoBit titration data was used to determine IC50 values for drug potency by fitting 4 parameter logistic curves using GraphPad Prism 7.0.” left out

Data set [3] relates to eIF4E S209 phosphorylation. In words: AlphaScreen Surefire eIF4E S209 phosphorylation assay in PC-3 cells. The class given is cell-based. To be noted: PC3 cells, 4E-BP1 protein levels high, normalised to GAPDH, read-out: pEIF4E SureFire (IC50). Here is the method:
(§4) Ninety-six-well plates were seeded at 30,000 cells per well with non-transfected PC-3, PANC-1 or HKEK293 cells in DMEM with 10% FCS and incubated overnight. Cells were then washed with PBS and the media replaced with OPTI-MEM containing no serum. Cells were then treated with the indicated compounds. Controls were performed with DMSO vehicle treatments. Four hours post treatments, cells were lysed with 50 μl of passive lysis buffer (PerkinElmer) for 15 min and 10 μl of lysate from each well was transferred into a white bottom 384-well plate. GAPDH and pS209 eIF4E levels were assessed according to the manufacturer’s instructions (PerkinElmer) for each sample. Luminescence was measured using an Envision Multiplate reader (PerkinElmer).

The next data set concerns PC-3 cells. In words: Cell viability by intracellular ATP (CellTiter-GLO) in PC-3 cells. The class given is cell-based. Conditions: NanoBit co-transfected PC-3 cells, 4 h. Here is the method:
as §3
(Cellular ATP, detected with luciferase, serves as a proxy for viable cell number.)

Data set [4] deals with eIF4E:eIF4G^604–646 complex. Briefly: NanoBit eIF4E:eIF4G^604–646 protein complementation assay in PC-3 cells. To be noted: for Activity in NanoBit system: PC-3 cells, 4 h. The class given is cell-based. Here is the method: as §2, §3
The test system of data set [5] is eIF4E S209 phosphorylation. Briefly: AlphaScreen Surefire eIF4E S209 phosphorylation assay in PANC-1 cells. The class given is cell-based. Here is the method: as §4
For orientation: Alpha assays give light when donor and acceptor beads are brought close together.

The next data set concerns HEK293 cells. Briefly: Cell viability by intracellular ATP (CellTiter-GLO) in HEK293 cells. It is filed as cell-based. Conditions: HEK293, 4-h treatment. The method, then:
as §3

The subject of data set [6] is full-length NanoLuc luciferase. Briefly: Full-length NanoLuc luciferase counter-screen in HEK293 cells. It is filed as cell-based. Conditions: HEK293 transfected with full-length NanoLuc. Background: A counterscreen serves to expose hits that act by an unwanted route or on another target.
For the next data set, the target named is eIF4E-eIF4G interface. Conditions: published value; read-out: in vitro Kd; cited from earlier work.
Data set [7] concerns the target T1, eIF4E:eIF4G^604–646 complex (Homo sapiens, UniProt P06730).
T1 construct: linked either to full-length eIF4E or the eIF4G^604–646 fragment; expressed in transfected cells; host or cells: HEK293
In words: NanoBit eIF4E:eIF4G^604–646 protein complementation assay in HEK293 cells. It is filed as cell-based. Conditions: HEK293, 4 h, normalised to DMSO and to full-length NanoLuc counter-screen; read-out: IC50, NanoBit eIF4E:eIF4G^604–646 signal. The method, then: as §1, §2, §3

The mark [8] stands for this setting: HEK293, 4 h treatment, read-out: IC50, NanoBit eIF4E:eIF4G^604–646 signal.

For orientation: IC50 means the midpoint of a concentration-inhibition curve. The Kd is the concentration at which binding is half-saturated.

T1 sequence (P06730 2-217, one chain of several): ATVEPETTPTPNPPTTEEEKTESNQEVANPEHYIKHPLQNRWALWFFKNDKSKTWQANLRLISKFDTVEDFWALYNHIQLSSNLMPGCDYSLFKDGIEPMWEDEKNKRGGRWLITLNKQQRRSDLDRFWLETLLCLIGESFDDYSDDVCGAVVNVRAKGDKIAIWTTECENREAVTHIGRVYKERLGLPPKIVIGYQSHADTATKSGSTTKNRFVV

In the case of `CC(C)Nc1cc(-c2c[nH]c(C(=O)N[C@H](CO)c3cccc(Cl)c3)c2)c(Cl)cn1` [Ulixertinib], the IC50 in data set [1] (setting [8]) worked out at 4700 ± 1800 nM.

For the compound `Nc1ncnc2n[nH]c(Nc3ccc(F)cc3)c12` [CGP57380], the “NanoBit eIF4E:4G (IC50, μM)” value in data set [2] (4E-BP1 protein levels low) is given as “No Inhibition”; in data set [4] (PC3 cells, 4E-BP1 protein levels high), “No Inhibition”. The IC50 is 3000 ± 1700 nM in data set [3] and 6200 ± 1300 nM in data set [5] (PANC cells, 4E-BP1 protein levels low, normalised to GAPDH, read-out: pEIF4E SureFire (IC50)). In data set [1] (HEK293, CGP57380 at constant concentrations, 4 h), the “Effect on NanoBit luminescence signal in combination with Ipasertib versus Ipasertib alone” value is given as “did not lead to a larger decrease of the luminescence signal”. In addition, the “Effect on cell viability” value with PC-3 cells is recorded as “no decrease in the luminescence signal or decrease in cell viability”. Further, the “Activity in NanoBit system” value in data set [4] is given as “no decrease in the luminescence signal”. Moreover, the “Decrease in ability to prevent phosphorylation of eIF4E, PANC1 versus PC-3” value in data set [5] (PANC1 cells compared with PC-3) is “twofold”.

Regarding `CC(C)n1nc(-c2cc3cc(O)ccc3[nH]2)c2c(N)ncnc21` [PP242], the “Effect on cell viability (intracellular ATP)” value (“Effect … (intracellular ATP)” for short) with HEK293 cells was “neither Rapamycin, Torin nor PP242 affected the cells adversely”.

In the case of `CC(C)NC[C@@H](C(=O)N1CCN(c2ncnc3c2[C@H](C)C[C@H]3O)CC1)c1ccc(Cl)cc1` [Ipasertib], the IC50 in data set [1] (setting [8]) came to 170 ± 24 nM.

As for `O=C(O)C(Cc1ccccc1[N+](=O)[O-])=NNc1nc(-c2ccc(Cl)c(Cl)c2)cs1` (mixture of isomers) [4EGi-1], the “Inhibition of full-length luciferase signal (counter-screen)” value in data set [6] is “Non-specific inhibition of the luciferase signal”. Also, the “Extent of disruption of NanoBit signal / eIF4F complex” value in data set [1] was “neither achieved complete disruption of the signal”. Moreover, in the data set with HEK293 cells, the “Effect … (intracellular ATP)” value is recorded as “only 4ER1Cat was observed to have an effect”. Moreover, the Kd on eIF4E-eIF4G interface is 25000 nM.

On to `O=C(O)c1ccc(N2C(=O)/C(=C\c3ccc(-c4ccc([N+](=O)[O-])cc4)o3)C=C2c2ccccc2)cc1` [4E1RCat], for which the “Inhibition of full-length luciferase signal (counter-screen)” value in data set [6] was “Non-specific inhibition of the luciferase signal”. Besides, the “Extent of disruption of NanoBit signal / eIF4F complex” value in [1] is on record as “neither achieved complete disruption of the signal”. Further, the IC50 in data set [7] was 600 ± 150 nM. The “Effect … (intracellular ATP)” value with HEK293 cells is “observed to have an effect”. Also, the Kd on eIF4E-eIF4G interface is 3200 nM.

For the compound `Cn1c(=O)n(-c2ccc(C(C)(C)C#N)cc2)c2c3cc(-c4cnc5ccccc5c4)ccc3ncc21` [BEZ235], the “Activity in NanoBit system” value is “dramatically attenuated” in [2] (4 h) and “mid-nanomolar range” in data set [4]. Moreover, the IC50 in data set [1] (HEK293, 4 h, read-out: apparent IC50, NanoBit eIF4E:eIF4G^604–646 signal) is 8 ± 0.7 nM. Further, in data set [1] (HEK293, si4EBP1 versus siCtrl), the “Attenuation of potency by siRNA-mediated knockdown of 4EBP1” value was “substantially reduced”. The “Extent of disruption of NanoBit signal / eIF4F complex” value in [1] was “achieved maximal inhibition of eIF4F activity”. Besides, in [1] (HEK293 co-transfected with GFP-MYC versus GFP control), the “Decrease in potency on overexpression of GFP-MYC” value was “over an order of magnitude”. Also, the “Effect of siRNA 4EBP1 knockdown on activity” value in [4] (PC3 cells, si4EBP1 versus siCtrl) was “strongly attenuated”.

As for `O=C(Nc1ccc2[nH]nc(-c3ccncc3)c2c1)[C@@H]1CCN(CC(=O)N2CCN(c3ccc(-c4ncccn4)cc3)CC2)C1` [SCH772984], the half-inhibitory concentration (IC50) in data set [1] (setting [8]) is 2600 ± 1800 nM. Also, in [1] (HEK293, SCH-772984 constant at 1 μM), the “Effect on eIF4F disruption in combination with Ipasertib titration” value is “additive effect”.

`CCC(=O)N1CCN(c2ccc(-n3c(=O)ccc4cnc5ccc(-c6cnc7ccccc7c6)cc5c43)cc2C(F)(F)F)CC1` [Torin]: the concentration for half-maximal inhibition (IC50) in [2] (4E-BP1 protein levels low, read-out: NanoBit eIF4E:4G (IC50)) is 130 ± 30 nM; in data set [3] (Homo sapiens, PC-3) it was 100 ± 20 nM; in data set [1] (setting [8]), 60 ± 10 nM; in [4] (PC3 cells, 4E-BP1 protein levels high, read-out: NanoBit eIF4E:4G (IC50)), 20 ± 10 nM. Also, the “Effect … (intracellular ATP)” value in the data set with HEK293 cells is given as “neither Rapamycin, Torin nor PP242 affected the cells adversely”. Besides, the “pEIF4E SureFire (IC50, μM)” value in [5] (PANC cells, 4E-BP1 protein levels low, normalised to GAPDH) is “No Inhibition”.

For `CO[C@H]1C[C@@H]2CC[C@@H](C)[C@@](O)(O2)C(=O)C(=O)N2CCCC[C@H]2C(=O)O[C@H]([C@H](C)C[C@@H]2CC[C@@H](O)[C@H](OC)C2)CC(=O)[C@H](C)/C=C(\C)[C@@H](O)[C@@H](OC)C(=O)[C@H](C)C[C@H](C)/C=C/C=C/C=C/1C` [Rapamycin], the half-inhibitory concentration (IC50) in data set [1] (setting [8]) worked out at 6880 ± 880 nM. Besides, in the data set on HEK293 cells, the “Effect … (intracellular ATP)” value is recorded as “neither Rapamycin, Torin nor PP242 affected the cells adversely”.
